Source: patent US11717578B2, “Undecylenic acid-based nanocarriers for targeted drug delivery” (University of Cincinnati, priority 2017, dated 2023)

Test system: Reactive Oxygen Species (ROS)
Assay: DPBF assay of photodynamic and sonodynamic ROS generation
Conditions: complexed with mPEG-UA nanocarrier vesicles
Source text: Photodynamic Reactive Oxygen Species (ROS) were generated by irradiation of red/green/blue (RGB) LEDs at 8 mW/cm^2 and detected by the 1,3-diphenylisobenzofuran (DPBF) assay. A photoreactive iron complex (Fe3[diCl-Sal-AHA]3OCH3 Na) from the Baldwin Lab (UC Chemistry) was employed as the photosensitizer and complexed with the mPEG-UA nanocarrier vesicles.

| Substance | photodynamic ROS generation (RGB LEDs at 8 mW/cm^2) | sonodynamic ROS generation (sonication at 1.0 MHz, 3 W/cm^2) |
| --- | --- | --- |
| Fe3[diCl-Sal-AHA]3OCH3 Na | photodynamic ROS are generated |  |
| sodium copper chlorophyllin |  | Sonodynamic ROS were generated |
